From patent US10314847B2, “Scalarane sesterterpenoid, pharmaceutical composition and topoisomerase II and Hsp90 inhibitor for treating cancer, and use and preparation method thereof” (NATIONAL DONG HWA UNIVERSITY, priority 2017, dated 2019)

Assays:
[1] = biological target: T1, human topoisomerase II (Homo sapiens, UniProt P11388); experiment: Assay of topoisomerase II catalytic inhibitors and poisons (cell-free pHOT1 DNA relaxation/cleavage); type: biochemical; details: cell-free system; read-out: Topo II activity IC50 (converted)
T1 construct: purchased Topogen
Procedure: Assay of Topoisomerase II Catalytic Inhibitors and Poisons:
Reactions were terminated by adding 2 μL of 10% SDS to facilitate trapping the enzyme in a cleavage complex, followed by the addition of 2.5 μL of proteinase K (50 μg/mL) to digest the bound protein (incubated at 37° C. for 15 minutes) and finally by adding 0.1 volume of the sample loading dye. The DNA products were analyzed via electrophoresis through vertical 2% agarose gels at 2 voltage/cm in 0.5×TAE buffer. Gels were stained with ethidium bromide (EtBr) and photographed using an Eagle Eye II system (Stratagene, La Jolla, Calif., U.S.A.). The quantitative analysis of the DNA Topo II activity was performed.

[2] = system: Molt 4 cells; experiment: Intracellular calcium accumulation (Fluo 3, flow cytometry); type: cell-based, human
Procedure: Determination of Reactive Oxygen Species (ROS) Generation, Calcium Accumulation, and Matrix Metalloproteinase (MMP) Disruption:
MMP disruption, calcium accumulation and ROS generation were detected with the JC-1 cationic dye (5 μg/mL), the fluorescent calcium indicator (Fluo 3, […]) and the carboxy derivative of fluorescein (carboxy-H2DCFDA, […]), respectively. In brief, the treated cells were labeled with a specific fluorescent dye for 30 minutes. After labeling, cells were washed with PBS and resuspended in PBS at a concentration of 1×10^6 cells/mL before analysis via flow cytometry.
Oxidative stress is manifested by ROS overexpression and cannot be balanced by the available antioxidant machinery. Compound 1 of the present invention can damage the integrity of mitochondria, which are the major production sites of the superoxide anion, […]. The induction of the intracellular formation of ROS by compound 1 was determined with a carboxyl derivative of fluorescein, carboxy-H2DCFDA dye using flow cytometric analysis. […] Furthermore, the effect of compound 1 on the release of intracellular Ca^2+, was evaluated using fluorescent calcium indicator, Fluo 3. […] Thus, the effect of compound 1 (0.0625 μg/mL) at different time intervals (0, 3, 6 and 9 hours) on the level of nuclear DNA integrity was determined. […]

[3] = system: Hsp90 client proteins; experiment: Western blot of Hsp90, Hsp70 and Hsp90 client proteins; type: cell-based, human; details: Molt 4 cells, 0.0625 μg/mL
Procedure: The induction of Hsp70 is the biomarker of Hsp90 with N-terminal inhibition. Aiming to understand the relation between Hsp90 function and the expression of Hsp70 and 90 clients, Molt 4 cells were treated with compound 1 (0.0625 μg/mL) for different time intervals. […] Furthermore, as shown in FIG. 5(B), Hsp90 client proteins were suppressed, including p70^S6K, NFκB, Raf-1, p-GSK3β, MEK 1 and XIAP ([…] protein), MDM 2 and Rb2 (oncoprotein), and CDK4 (cell cycle regulatory protein), HIF 1 and HSF1 (transcription factor). The majority of Hsps accumulate in subcellular localizations that determine whether a cell is going to die or differentiate. Furthermore, the localization of Hsp70 in response to the compound 1 treatment was identified using immunofluorescence by confocal microscope.

[4] = system: Molt 4
From the text: The cell lines were obtained from the American Type Culture Collection (ATCC, Manassas, Va., U.S.A.) or the Japanese Collection of Research Biosources (JCRB) Cell Bank (Japan). […] Antibodies against XIAP, NFκB (p65), GADD, CDK 4, HSF 1, ATF 6 and β-tubulin were obtained from Santa Cruz Biotechnology (Santa Cruz, Calif., U.S.A.). The Hybond ECL transfer membrane and ECL Western blotting detection kits were obtained from Amersham Life Sciences (Amersham, U.K.).
Several cancer cell lines including leukemia K562, Molt 4, and HL 60 cells, prostate cancer LNCaP cells, colon cancer DLD-1 cells and breast cancer T-47D cells were used to evaluate the antiproliferative activity (referring to Table 2).
It is known that mitochondria are critical intracellular loci of ROS production and ROS exposure can lead to the […] opening. The antioxidant, microsomal GST1, in the inner mitochondrial membrane can interact with the mitochondrial permeability transition (MPT) regulator proteins, such as ANT and/or CypD, to form a MPT pore contributing to mitochondria-mediated cell death. In addition, mitochondrial homeostasis of tumor cells is regulated by an organelle-specific Hsp90 chaperone network.

[5] = system: Cal-27
[6] = system: Hsp70; experiment: Immunofluorescence analysis of Hsp70 localization; type: cell-based, human; details: Molt 4 cells, confocal microscope
Procedure: Immunofluorescence Analysis:
After treatment with the tested compound, cells were fixed with 4% paraformaldehyde in 50 mM HEPES buffer (pH 7.3) for 30 minutes, and permeabilized for 20 minutes with 0.2% Trition X-100 in PBS (pH 7.4). To prevent non-specific protein binding, cells were incubated with 5% BSA in PBS containing 0.05% Trition X-100 (T-PBS) for 1 hour at room temperature. Cells were then incubated with the primary Hsp70 antibodies (1:500) for 2 hours and further with secondary antibodies (Alexa Fluor […] goat anti-mouse IgG (H+L) (Life Technologies, Carlsbad, Calif., U.S.A.)) diluted at 1:1000 for 1 hour at room temperature. After washing with PBS, cells were observed under a FV1000 confocal laser scanning microscope (Olympus, Tokyo, Japan).
The induction of Hsp70 is the biomarker of Hsp90 with N-terminal inhibition. Aiming to understand the relation between Hsp90 function and the expression of Hsp70 and 90 clients, Molt 4 cells were treated with compound 1 (0.0625 μg/mL) for different time intervals. […] Furthermore, as shown in FIG. 5(B), Hsp90 client proteins were suppressed, including p70^S6K, NFκB, Raf-1, p-GSK3β, MEK 1 and XIAP ([…] protein), MDM 2 and Rb2 (oncoprotein), and CDK4 (cell cycle regulatory protein), HIF 1 and HSF1 (transcription factor). […]

T1 sequence (P11388 whole entry): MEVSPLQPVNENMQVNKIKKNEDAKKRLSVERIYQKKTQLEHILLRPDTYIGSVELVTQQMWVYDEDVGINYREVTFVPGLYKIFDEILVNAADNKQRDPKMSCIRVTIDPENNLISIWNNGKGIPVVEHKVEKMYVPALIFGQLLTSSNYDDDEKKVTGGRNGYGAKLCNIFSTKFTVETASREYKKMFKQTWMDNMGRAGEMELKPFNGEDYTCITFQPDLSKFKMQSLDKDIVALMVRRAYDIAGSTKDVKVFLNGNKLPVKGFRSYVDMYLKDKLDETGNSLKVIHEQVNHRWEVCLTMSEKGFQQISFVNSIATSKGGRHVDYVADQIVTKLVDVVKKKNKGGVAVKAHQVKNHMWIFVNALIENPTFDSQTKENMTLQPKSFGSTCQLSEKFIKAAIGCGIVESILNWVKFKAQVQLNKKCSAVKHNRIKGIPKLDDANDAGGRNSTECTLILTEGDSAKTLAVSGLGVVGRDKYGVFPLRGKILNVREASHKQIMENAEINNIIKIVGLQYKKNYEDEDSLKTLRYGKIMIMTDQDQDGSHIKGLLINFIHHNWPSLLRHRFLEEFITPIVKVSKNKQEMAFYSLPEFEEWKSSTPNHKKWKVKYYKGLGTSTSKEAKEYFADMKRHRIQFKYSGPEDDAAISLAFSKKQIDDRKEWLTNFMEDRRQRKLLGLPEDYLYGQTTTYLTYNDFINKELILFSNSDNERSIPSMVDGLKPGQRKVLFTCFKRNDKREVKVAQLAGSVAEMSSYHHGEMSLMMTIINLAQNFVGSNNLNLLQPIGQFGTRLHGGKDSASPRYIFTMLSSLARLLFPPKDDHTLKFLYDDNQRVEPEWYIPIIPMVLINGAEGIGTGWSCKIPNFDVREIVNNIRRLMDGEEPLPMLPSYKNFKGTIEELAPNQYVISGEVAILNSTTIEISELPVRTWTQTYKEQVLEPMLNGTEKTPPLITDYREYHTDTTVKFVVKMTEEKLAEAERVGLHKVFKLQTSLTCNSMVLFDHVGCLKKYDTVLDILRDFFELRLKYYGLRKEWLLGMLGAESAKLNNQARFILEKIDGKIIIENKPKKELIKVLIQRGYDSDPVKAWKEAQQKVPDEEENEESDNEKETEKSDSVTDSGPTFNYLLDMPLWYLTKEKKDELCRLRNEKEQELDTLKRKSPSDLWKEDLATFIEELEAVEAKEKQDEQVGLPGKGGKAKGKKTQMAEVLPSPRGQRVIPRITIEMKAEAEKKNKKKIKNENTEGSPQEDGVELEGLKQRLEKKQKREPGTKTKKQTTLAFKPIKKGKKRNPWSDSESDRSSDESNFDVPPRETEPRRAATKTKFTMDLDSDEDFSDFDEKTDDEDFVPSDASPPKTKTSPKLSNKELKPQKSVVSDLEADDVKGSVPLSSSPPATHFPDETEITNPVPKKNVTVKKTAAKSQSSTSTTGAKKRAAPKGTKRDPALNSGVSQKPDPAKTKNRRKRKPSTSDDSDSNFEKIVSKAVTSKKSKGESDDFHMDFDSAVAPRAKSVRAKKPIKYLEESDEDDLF

SMILES: CC[C@@]1(C)CCC[C@]2(C)[C@H]3C[C@@H](OC(=O)C[C@@H](C)O)[C@]4(C)[C@@H](C=O)C(C(C)=O)=CC[C@H]4[C@]3(C)CC[C@@H]12 (relative stereo) [Compound 1, 12β-(3′β-hydroxybutanoyloxy)-20,24-dimethyl-24-oxo-scalara-16-en-25-al]
- IC50 [1]: 3.95 µM
- Increase in intracellular Ca2+ accumulation versus MFI of control ([2]; 2 hours): 1.06 folds
- Increase in intracellular Ca2+ accumulation versus MFI of control ([2]; 18 hours): 1.06 folds
- Expression of HSF 1 protein [3]: attenuated
- Hsp90 client proteins (p70S6K, NFκB, Raf-1, p-GSK3β, MEK 1, XIAP, MDM 2, Rb2, CDK4, HIF 1, HSF1) [3]: suppressed
- Expression of Hsp70 ([3]; different time intervals): increased in a time-dependent manner
- Expression of Hsp90 protein ([3]; different time intervals): did not notably attenuate
- Cytotoxic effect IC50, Molt 4 [4]: 0.01 µg/mL
- Cytotoxic effect IC50, Cal-27 [5]: 0.56 µg/mL
- Localization of Hsp70 [6]: predominantly accumulated in cytosol
